Test results as given in article PMC3185582 (Viruses, 2010).
Where two headings read alike, the source gives them in different places.

Assays:
vaccinia virus [1] = format: cell-based
cowpox virus = format: cell-based
Monkeypox = settings: in vivo, cited from earlier work
variola virus [2] = test system: variola virus; design: species or system cynomolgus macaques; settings: cynomolgus monkey, in vivo
in vivo [3] = settings: both, cynomolgus, monkey
in vivo [4] = settings: Sprague-Dawley, rat, po, 30 mg/kg
CYP2C19 = CYP2C19 (Homo sapiens, UniProt P33261); assay: in vitro
Cowpox = settings: mouse, in vivo, cited from earlier work
[5] = 12 daily doses of 300 mg/kg
[6] = not given; remark: listed apart in the source
in vivo [7] = settings: cynomolgus monkey
CYP2E1 = CYP2E1 (Homo sapiens, UniProt P05181); assay: in vitro
in vivo [8] = settings: BALB/c, mouse
[9] = test system: selected cell lines from mouse, rabbit, monkey, and humans; settings: cited from earlier work
[10] = mouse, in vivo
monkeypox virus [11] = test system: monkeypox virus; design: species or system prairie dogs; settings: dog, in vivo
[12] = top dose 2000 mg/kg
monkeypox virus [13] = settings: cynomolgus monkey, in vivo, cited from earlier work
[14] = test system: monkeypox virus clinical isolates; settings: cited from earlier work
poxvirus = settings: mouse, in vivo; cited from earlier work
[15] = not given; remark: listed apart in the source
[16] = methanol, ethanol and acetonitrile
Ectromelia = settings: mouse, in vivo, cited from earlier work
vaccinia virus [17] = settings: CPE assay; read-out: EC50 for inhibition of viral replication; cited from earlier work
[18] = not given; remark: listed apart in the source
orthopoxviruses = test system: orthopoxviruses; design: species or system mice; settings: mouse, in vivo
unrelated viruses = settings: read-out: EC50 for inhibition of viral replication; cited from earlier work
[19] = monkey or human microsomes
Vaccinia [20] = settings: mouse, in vivo, po, 100 mg/kg
cytochrome P450 (CYP) = settings: 10 μM (3,700 ng/mL)
[21] = test system: vaccinia virus in BSC-40 cell monolayers; settings: 10 μM, 5 pfu/cell; ref Chen et al. [48]; cited from earlier work
CYP2C8 = CYP2C8 (Homo sapiens, UniProt P10632); assay: in vitro
monkeypox virus [22] = test system: monkeypox virus; design: species or system cynomolgus macaques; settings: cynomolgus monkey, in vivo
[23] = test system: vaccinia virus in BSC-40 cell monolayers; format: cell-based
ectromelia virus = settings: read-out: EC50 for inhibition of viral replication; cited from earlier work
[24] = not given; remark: listed apart in the source
[25] = 300 mg/kg, repeat dose studies
[26] = single oral dose, tidal volume
in vivo [27] = settings: BALB/c, mouse, 30 mg/kg
[28] = test system: variola virus clinical isolates; settings: cited from earlier work
variola virus [29] = settings: cynomolgus monkey, in vivo, cited from earlier work
CYP2B6 = CYP2B6 (Homo sapiens, UniProt P20813); assay: in vitro
p37 with Rab9 and TIP47 = settings: cited from earlier work
[30] = mouse, in vivo; remark: listed apart in the source
[31] = rat, mouse and dog microsomes
CYP1A2 = CYP1A2 (Homo sapiens, UniProt P05177); assay: in vitro
Rabbitpox = settings: rabbit, in vivo, cited from earlier work
Vaccinia [32] = settings: mouse, in vivo, cited from earlier work
[33] = for increase in AUC values (accumulation): 28 day repeat dose study
in vivo [34] = settings: dog
vero and BSC40 cells = settings: ST-246 treatment, 50 uM; unpublished work [21]
[35] = by 96 hours after oral administration

CYP2C19, sequence (P33261 whole entry): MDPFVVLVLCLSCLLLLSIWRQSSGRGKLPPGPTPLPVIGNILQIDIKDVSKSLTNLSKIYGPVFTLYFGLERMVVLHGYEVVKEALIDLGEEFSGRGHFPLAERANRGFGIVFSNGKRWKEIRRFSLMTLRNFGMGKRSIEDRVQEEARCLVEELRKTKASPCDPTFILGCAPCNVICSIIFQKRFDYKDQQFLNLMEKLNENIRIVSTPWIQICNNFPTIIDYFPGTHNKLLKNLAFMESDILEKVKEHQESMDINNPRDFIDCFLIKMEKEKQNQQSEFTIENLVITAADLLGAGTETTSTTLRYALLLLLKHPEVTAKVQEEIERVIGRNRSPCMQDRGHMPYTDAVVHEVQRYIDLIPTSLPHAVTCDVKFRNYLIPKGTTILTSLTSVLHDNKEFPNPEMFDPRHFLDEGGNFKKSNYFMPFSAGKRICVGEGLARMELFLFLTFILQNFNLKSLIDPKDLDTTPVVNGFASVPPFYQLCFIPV
CYP2E1, sequence (P05181 whole entry): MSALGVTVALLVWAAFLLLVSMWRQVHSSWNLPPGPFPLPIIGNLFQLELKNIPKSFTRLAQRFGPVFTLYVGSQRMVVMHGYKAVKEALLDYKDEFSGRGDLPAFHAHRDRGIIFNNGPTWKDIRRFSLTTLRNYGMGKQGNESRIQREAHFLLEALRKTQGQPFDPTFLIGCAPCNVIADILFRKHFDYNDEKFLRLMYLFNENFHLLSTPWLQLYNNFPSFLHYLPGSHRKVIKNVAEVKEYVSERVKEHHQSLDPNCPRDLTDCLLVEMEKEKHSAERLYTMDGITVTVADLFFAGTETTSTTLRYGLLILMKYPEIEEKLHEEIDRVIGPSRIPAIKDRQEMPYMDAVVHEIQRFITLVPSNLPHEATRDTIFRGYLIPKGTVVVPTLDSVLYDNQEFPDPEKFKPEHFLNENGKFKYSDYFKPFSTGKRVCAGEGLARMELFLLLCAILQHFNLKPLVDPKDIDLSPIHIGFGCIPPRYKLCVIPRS
CYP1A2, sequence (P05177 whole entry): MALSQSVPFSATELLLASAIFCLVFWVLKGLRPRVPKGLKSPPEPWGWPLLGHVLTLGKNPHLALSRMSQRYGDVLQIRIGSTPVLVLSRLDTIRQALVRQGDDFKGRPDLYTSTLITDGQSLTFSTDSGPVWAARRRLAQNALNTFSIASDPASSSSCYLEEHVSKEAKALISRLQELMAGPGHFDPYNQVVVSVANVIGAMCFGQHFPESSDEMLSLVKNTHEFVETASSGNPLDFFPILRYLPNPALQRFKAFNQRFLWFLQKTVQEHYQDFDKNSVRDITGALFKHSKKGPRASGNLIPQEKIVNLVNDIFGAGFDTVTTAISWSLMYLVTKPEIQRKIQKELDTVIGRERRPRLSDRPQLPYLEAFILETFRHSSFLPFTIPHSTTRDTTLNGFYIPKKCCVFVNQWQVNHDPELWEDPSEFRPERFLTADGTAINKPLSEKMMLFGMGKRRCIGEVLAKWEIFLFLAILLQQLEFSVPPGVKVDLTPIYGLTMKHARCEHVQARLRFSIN
CYP2C8, sequence (P10632 whole entry): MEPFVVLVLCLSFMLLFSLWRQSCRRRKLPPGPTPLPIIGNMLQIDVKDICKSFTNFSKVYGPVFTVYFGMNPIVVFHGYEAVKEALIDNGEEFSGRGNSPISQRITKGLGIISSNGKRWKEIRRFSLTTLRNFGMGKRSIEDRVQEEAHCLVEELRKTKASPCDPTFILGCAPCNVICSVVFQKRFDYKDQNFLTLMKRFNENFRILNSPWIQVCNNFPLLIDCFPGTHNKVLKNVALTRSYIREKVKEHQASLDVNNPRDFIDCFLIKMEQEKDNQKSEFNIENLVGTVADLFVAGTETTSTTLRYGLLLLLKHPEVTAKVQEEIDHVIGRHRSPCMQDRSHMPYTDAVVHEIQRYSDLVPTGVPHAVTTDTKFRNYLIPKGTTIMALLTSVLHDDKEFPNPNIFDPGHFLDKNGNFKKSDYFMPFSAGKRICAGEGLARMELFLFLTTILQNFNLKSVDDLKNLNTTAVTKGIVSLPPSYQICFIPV
CYP2B6, sequence (P20813 whole entry): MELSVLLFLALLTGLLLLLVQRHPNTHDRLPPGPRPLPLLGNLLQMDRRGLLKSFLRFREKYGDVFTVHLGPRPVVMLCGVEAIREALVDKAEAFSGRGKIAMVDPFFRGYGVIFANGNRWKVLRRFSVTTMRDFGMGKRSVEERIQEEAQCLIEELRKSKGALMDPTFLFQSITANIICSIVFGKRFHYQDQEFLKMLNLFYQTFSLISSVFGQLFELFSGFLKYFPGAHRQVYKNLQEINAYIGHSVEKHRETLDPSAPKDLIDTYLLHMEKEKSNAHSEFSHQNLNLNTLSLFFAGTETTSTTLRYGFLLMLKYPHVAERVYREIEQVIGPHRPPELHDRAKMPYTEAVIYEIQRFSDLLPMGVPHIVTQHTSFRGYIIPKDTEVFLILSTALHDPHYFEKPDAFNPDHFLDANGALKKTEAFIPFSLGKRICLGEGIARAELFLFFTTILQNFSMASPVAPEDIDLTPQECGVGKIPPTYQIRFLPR

In the case of `O=C(NN1C(=O)C2C3C=CC(C4CC34)C2C1=O)c1ccc([N+](=O)[O-])cc1` (centres unmarked) [4-nitrophenyl], the “fold more potent than the 4-dimethylaminophenyl analog” value (vaccinia virus [1]) is reported as 100 fold and the “fold more potent than the 4-dimethylaminophenyl analog” value (cowpox virus) is reported as 100 fold.
In the case of `O=C(NN1C(=O)[C@@H]2[C@@H]3C=C[C@@H]([C@H]4C[C@@H]34)[C@@H]2C1=O)c1ccc(C(F)(F)F)cc1` [ST-246, Tecovirimat], the “Optimal oral dose mg/kg, s.i.d.” value (Monkeypox; po) is given as 100 mg/kg, the Time of treatment (Monkeypox) is given as 72 h.p.i. (100%) and the “Time of treatment (% efficacy)” value (Monkeypox) is given as 72 h.p.i. (100%). The CYP induction (CYP 2C19) was “induction was observed”, the “lesion numbers compared to placebo-treated animals” value (variola virus [2]) was “reduced lesion numbers” and the NOAEL (in vivo [3]) was 2000 mg/kg. For the same compound, the maternal toxicity (Segment II study, highest dose 100 mg/kg) was “some maternal toxicity”, the “fertility, fetal resorptions, fetal abnormalities or toxicity” value (rabbit, in vivo) was “no evidence” and the Caco-2 membrane permeability (Caco-2) was “good”. For the same compound, the bioavailability (in vivo [4]; female) was 33%, the bioavailability (in vivo [4]; male) was 90% and the inhibition at 300 µM (CYP2C19) was less than 50%. For the same compound, the “Optimal oral dose mg/kg, s.i.d.” value (Cowpox; po) was 100 mg/kg, the Optimal dose duration (Cowpox) was >7 days (93%] and the “Optimal dose duration (% efficacy)” value (Cowpox) was >7 days (93%]. For the same compound, the Time of treatment (Cowpox) was 48 h.p.i. (93%), the “Time of treatment (% efficacy)” value (Cowpox) was 48 h.p.i. (93%) and the “electroencephalograms and seizure thresholds” value [5] was “no evidence of altered electroencephalograms or lowered seizure thresholds”. For the same compound, the “time to nearly complete elimination of radioactivity” value ([6]; after oral administration) was no more than 96 h, the “radioactivity eliminated in the urine” value [6, 35] was 24% and the “radioactivity eliminated through the feces” value [6, 35] was “approximately 72%”. It also gave a clearance (in vivo [7]; both, iv, 1 mg/kg) of roughly 18.3 mL/min/kg, a bioavailability (in vivo [7]; fasted) of roughly 25% and a bioavailability (in vivo [7]; fed state) of roughly 50%. It also gave an inhibition at 300 µM (CYP2E1) of less than 50%, an NOAEL at 3 months (in vivo [8]; 1000 mg/kg) of 1000 mg/kg and an MTD (in vivo [8]; 2000 mg/kg) of 2000 mg/kg. The MTD at 28 days (in vivo [8]; 2000 mg/kg) was 2000 mg/kg, the NOAEL at 28 days (in vivo [8]; 2000 mg/kg) was 2000 mg/kg and the CC50 [9] was greater than 50000 nM. The “fertility, fetal resorptions, fetal abnormalities or toxicity” value [10] was “no evidence”, the protection from death (monkeypox virus [11]) was 100% and the “behavioral or other functional changes” value [12] was “did not elicit any”. For the same compound, the “Optimal oral dose mg/kg, s.i.d.” value (monkeypox virus [13]; po) was 3 mg/kg, the Time of treatment (monkeypox virus [13]) was 96h.p.i. (100%) and the “Time of treatment (% efficacy)” value (monkeypox virus [13]) was 96h.p.i. (100%). The protection from death (monkeypox virus [13]) was 100%, the “protection from lethal infection” value (monkeypox virus [13]) was 100% and the “inhibition of clinical isolates in cell culture” value [14] was “inhibited”. For the same compound, the “protection from lethal infection” value (poxvirus) was “protect”, the plasma protein binding [15] was “moderate to high” and the “solubility in organic solvents” value [16] was “very soluble”. The “Optimal oral dose mg/kg, s.i.d.” value (Ectromelia; po) was 100 mg/kg, the Optimal dose duration (Ectromelia) was >5 days (100%) and the “Optimal dose duration (% efficacy)” value (Ectromelia) was >5 days (100%). For the same compound, the Time of treatment (Ectromelia) was 72 h.p.i. (100%), the “Time of treatment (% efficacy)” value (Ectromelia) was 72 h.p.i. (100%) and the EC50 (vaccinia virus [17]) was 10 nM. For the same compound, the clinical observations ([18]; 300 mg/kg) was “ataxia was observed four hours post dose in one female NHP”, the NOEL ([18]; 3 Month study) was 300 mg/kg and the NOEL ([18]; 28 Day repeat dose study) was 300 mg/kg. For the same compound, the “multiple-dose NOEL” value ([18]; monkey) was 300 mg/kg/day, the clinical observations ([18]; single dose 1000 mg/kg) was “This was also observed” and the clinical observations ([18]; single oral dose 2000 mg/kg, male and female) was “decreased activity and ataxia”. For the same compound, the CYP induction (CYP 2B6) was “induction was observed”, the “latest treatment initiation for full protection” value (orthopoxviruses) was no more than 72 hours post-infection and the optimal dosing period (orthopoxviruses; 100 mg/kg) was “greater than seven days”. The “optimal once per day oral dose for protective efficacy” value (orthopoxviruses; po) was 100 mg/kg, the EC50 (unrelated viruses) was greater than 40000 nM and the cleavage metabolites [19] was “not seen”. For the same compound, the “protection from systemic disease” value (Vaccinia [20]) was “protects mice from systemic disease”, the “cytochrome P450 (CYP) induction” value (cytochrome P450 (CYP)) was “no significant” and the genotoxicity (bacterial) was “not genotoxic”. For the same compound, the “extracellular virus (CEV and EEV) formation” value [21] was “inhibits”, the inhibition at 300 µM (CYP2C8) was less than 50% and the “protection from lethal infection” value (monkeypox virus [22]) was “protected animals from lethal infection”. The “protection from lethal infection, latest administration” value (monkeypox virus [22]) was “as late as five days post-inoculation”, the plaque formation [23] was “inhibits” and the EC50 (ectromelia virus) was 70 nM. The “radiolabel in the milk” value ([24]; nursing dams) was less than 1%, the “radiolabel in the placenta” value ([24]; pregnant mice) was “only very low levels” and the QTc [25] was “no prolongation”. The “no observable effect level (NOEL)” value [26] was 2000 mg/kg, the bioavailability (in vivo [27]) was roughly 40% and the “inhibition of clinical isolates in cell culture” value [28] was “inhibited”. The “Optimal oral dose mg/kg, s.i.d.” value (variola virus [29]; po) was 10 mg/kg, the Time of treatment (variola virus [29]) was 24 h.p.i. (100%) and the “Time of treatment (% efficacy)” value (variola virus [29]) was 24 h.p.i. (100%). For the same compound, the genotoxicity (mammalian cell) was “not genotoxic”, the inhibition at 300 µM (CYP2B6) was less than 50% and the “interaction of p37 with Rab9 and TIP47” value (p37 with Rab9 and TIP47) was “blocks”. The “metabolism by cytochrome P450 isozymes” value (cytochrome P450 isozymes) was “not metabolized to any significant degree”, the “chromosomal damage or bone marrow toxicity” value [30] was “did not cause” and the “cleavage liberating 4-trifluoromethylbenzoic acid” value [31] was “small amounts of ST-246 were cleaved”. The inhibition at 300 µM (CYP1A2) was less than 50%, the “Optimal oral dose mg/kg, s.i.d.” value (Rabbitpox; po) was 40 mg/kg and the Time of treatment (Rabbitpox) was 48 h.p.i. (100%). For the same compound, the “Time of treatment (% efficacy)” value (Rabbitpox) was 48 h.p.i. (100%), the “Optimal oral dose mg/kg, s.i.d.” value (Vaccinia [32]; po) was 100 mg/kg and the Optimal dose duration (Vaccinia [32]) was >5 days (100%]. The “Optimal dose duration (% efficacy)” value (Vaccinia [32]) was >5 days (100%], the “increase in AUC values (accumulation)” value ([33]; 1000 mg/kg) was “approximately 25%” and the “increase in AUC values (accumulation)” value ([33]; 2000 mg/kg) was “approximately 50%”. The terminal elimination half-life ([33]; once a day dosing) was “approximately four”, the MTD (in vivo [34]) was 30 mg/kg and the growth of cells (vero and BSC40 cells) was “not affected”.
